Laboratory results taken from patent publication US11246961B2, “Engineered scaffolds for vascularized tissue repair” (The Regents of the University of California, priority 2016, dated 2022).
Entries after “also recorded” stand apart in the source; their conditions may differ.

Assays:
HECFCs = test: on-bead whole cell binding assay, HECFCs; type: cell-based, human
Description: Endothelial colony forming cells (ECFCs), a subtype of EPCs also often referred to as outgrowth endothelial cells (OECs), were isolated from human umbilical cord blood as previously described (Williams et al. (2015) PloS One 10:e0123437; Ingram et al. (2004) Blood 104:2752). Human umbilical cord blood (10 U heparin/mL blood) was obtained from the UC Davis Umbilical Cord Blood Collection Program (UCBCP) and diluted 1:1 with Phosphate-buffered saline (PBS), without calcium and magnesium, pH 7.2 (Hyclone). Fifteen mL Ficoll-Paque PLUS (Amersham Biosciences) was laid at the bottom of 20 mL diluted blood and centrifuged at 2000 rpm for 30 minutes at room temperature. The hazy layer of mononuclear cells (MNCs) that seat at the interface between the Ficoll and serum was collected and dispensed into 50-mL conical tube containing 10 mL EBM-2 (Lonza) and centrifuged at 1500 rpm for 10 minutes at room temperature. The supernatant was carefully aspirated and the pellets were treated with red blood cell lysis buffer (eBioscience, Inc.) and then sorted by CD34 microbead magnetic sorting (Miltenyi Biotec GmbH) as per manufacturer's instructions. The CD34^+ cells were seeded on rat-tail collagen I (BD Biosciences Discovery) coated tissue culture plates and cultured in EGM-2 media (Lonza). After 24 h, non-adherent cells were removed and the media was changed daily to day 7 and every other day thereafter. ECFC-derived colonies appeared between day 4 and day 7 of culture with s typical endothelial cobblestone pattern. Individual colonies were isolated and expanded and allowed to grow to 80% to 90% confluency before first passage. ECFCs were used between P3 and P5 for all experiments.
(§1) HECFCs, HCAECs, HMVECs and THP-1 monocytes were cultured in their respective growth medium as described in Example 1. For cell bead-binding assay, 6×10^5 HECFCs, HCAECs, HMVECs or THP-1 monocytes in 2 mL of their respective culture medium were added to an ultra-low attachment 35-mm petri dish (Corning Incorporated) followed by resin beads (Lam et al. (1991) Nature 354:82). […]

platelets [1] = test: platelet-bead binding assay; type: cell-based; details: 10 minutes, 30 minutes or 2 hours
Protocol: HECFCs, HCAECs and HMVECs were cultured in EC expansion medium EGM-2 and THP-1 monocytes were cultured in RPMI Medium 1640 (Gibco) supplemented with 10% fetal bovine serum (FBS, Hyclone) and 0.05 mM 2-mercaptoethanol (Sigma). αvβ3-K562 cells and αIIbβ3-K562 cells were cultured in RPMI Medium 1640 plus 10% FBS. Platelet-rich plasma (PRP) was obtained from UC Davis Medical Center (Sacramento, Calif.). Fresh PRP (260×10^3 platelets/μL) was centrifuged, and the pellets were resuspended in Dulbecco's Phosphate Buffer Saline (DPBS; Hyclone) containing 2 mM CaCl2) and MgCl2 to a final concentration of 1×10^8 platelets/mL.
as §1, with “354:82). The dishes were incubated in a shaking incubator at 37° C., 5% CO2 for various time points at 40 rpm. For platelet bead-binding assay, the platelets isolated as described in Example 1 were added to an ultra-low attachment 35-mm petri dish and incubated with the resin beads in the shaking incubator as described for the cell-bead binding assy.” for “354:82).”

platelets [2] = test: platelets attachment assay on ligand treated culture surfaces; type: cell-based; details: 16 hours
Description: (§2) Ligands LXW7, LXY30, and LLP2A were synthesized as in U.S. Pat. No. 9,073,974. Biotinylated LXW7 (LXW7-bio) and biotinylated GRGD (GRGD-bio) (SEQ ID NO: 1) were synthesized using established solid phase peptide synthesis protocols (Xiao et al. (2010) Mol Cancer Therapeutics 9:2714). Peptide-bio was designed to have biotin attached to the side chain of Lys, with two hydrophilic linkers between peptide and Lys (biotin). To modify culture surface with ligands, target culture wells in a 24-well plate were coated with 500 μL of 20 μg/mL Avidin (Thermo Fisher Scientific), and incubated for 1 hour at 37° C. Avidin coated wells were rinsed three times with DPBS and were treated with 500 μL molar equivalents (2 μM) of D-biotin (Thermo Fisher Scientific), LXW7-bio, or GRGD-bio (SEQ ID NO: 1). After 1 hour, the wells were washed three times with DPBS and blocked with 1% bovine serum albumin (BSA; Thermo Fisher Scientific) for 1 hour. After the wells were rinsed three times with DPBS, for cell attachment assay, 5×10^4 HCAECs and THP-1 monocytes suspended in the respective maintenance medium were added to the wells and incubated for 10 minutes or 16 hours at 37° C., 5% CO2, respectively. […] Five images were randomly taken from each sample and quantification of images was performed using the Image J software (NIH).

HCAECs = test: attachment assay on ligand treated culture surfaces, HCAECs; type: cell-based, human; details: 10 minutes
Description: as §2, with “respectively. After each time point the wells were washed three times with DPBS, and the adhered cells were fixed in 10% formalin (Azer Scientific) for 20 minutes. For platelets attachment assay, the PRP was centrifuged, and the platelet pellet was resuspended in 1% BSA with 2 mM CaCl2 and 1 mM MgCl2 to achieve a final concentration of 1×10^8 platelets/mL, added to the wells at a density of 5×10^7 platelets/cm^2, and incubated for 16 hours at 37° C., 5% CO2. The wells were washed three times with DPBS, and the adhered cells were fixed in 10% formalin for 20 min. The HCAECs wells were washed with DPBS again and blocked for 1 hour with 1% BSA. An additional wash was performed, and the plate was incubated overnight with mouse anti-PECAM-1 antibody (1:100; Abcam) in 1% BSA at 4° C.” for “respectively.”

THP-1 monocytes = test: attachment assay on ligand treated culture surfaces, THP-1 monocytes; type: cell-based; details: 16 hours
Description: as §2

cGRGDdvc [LXW7]
attachment of HECFCs to beads displaying LXW7 (HECFCs; 10 minutes, 30 minutes or 2 hours): efficiently supported attachment of EPCs/ECs from different sources; also recorded: efficiently supported EPC/EC attachment | binding of HECFCs to ligand-displaying resin beads (HECFCs; 2 hours incubation): bound both HECFCs and HCAECs | attachment of platelets to beads displaying LXW7 (platelets [1]): did not support effective attachment | platelet adhesion on ligand treated surface (platelets [2]): limited platelet adhesion | attachment of HCAECs on ligand treated surface (HCAECs; avidin + biotinylated ligand 2 μM): bound to both LXW7 and GRGD | number of attached HCAECs, LXW7 vs GRGD surface (HCAECs; quantified): attracted more HCAECs than the GRGD-modified | THP-1 monocyte attachment on ligand treated surface (THP-1 monocytes): did not support THP-1 monocyte attachment
